Common to all, as to format: cell-based
For one test, the system named is MCF-7 MX100. The experiment in a line: BrdU-Assay, IC-50 against cancer cell line MCF-7 MX100. To be noted: MCF7/MX100; MCF-7 MX100, BrdU-Assay. The text has this: (§1) Determination of the IC-50 Concentration Against Various Cancer Cell Lines
(§2) The activity of some representative example compounds of the present invention has been determined with the BrdU-Assay as described in: Porstmann T., Ternynck T., Avrameas S. (1985) “Quantification of 5-bromo-2-deoxyuridine incorporation into DNA: an enzyme immunoassay for the assessment of the lymphoid cell proliferative response.” J. Immunol. Methods 82: 169-179.

The next test concerns MCF-7 TX200. The experiment in a line: BrdU-Assay, IC-50 against cancer cell line MCF-7 TX200. As to conditions: Homo sapiens; MCF-7 TX200, BrdU-Assay.
Text: as §1, §2

Another test concerns Skov-3. The experiment in a line: BrdU-Assay, IC-50 against cancer cell line Skov-3. As to conditions: Homo sapiens, SK-OV-3; Skov-3, BrdU-Assay.
Text: as §1, §2

In another test the test system is MCF-7 VP. The experiment in a line: BrdU-Assay, IC-50 against cancer cell line MCF-7 VP. To be noted: Homo sapiens, MCF7-VP.
Text: as §1, §2

Another test has as its system HCT-116. The experiment in a line: BrdU-Assay, IC-50 against cancer cell line HCT-116. As to conditions: Homo sapiens; HCT-116, BrdU-Assay.
Text: as §1, §2

The next test relates to MCF-7. The experiment in a line: BrdU-Assay, IC-50 against cancer cell line MCF-7. As to conditions: Homo sapiens, MCF7; MCF-7, BrdU-Assay.
Text: as §1, §2

For the molecule `CC[C@H](C)C(NC(=O)C1CCCCN1C)C(=O)N[C@H](C[C@@H](OC(C)=O)c1nc(C(=O)N[C@@H](Cc2ccccc2)C[C@H](C)CO)cs1)C(C)C` (stereo partly drawn) [SDRD28], the IC50 stood at 1.41 nM with MCF-7 MX100; 370 nM in the test with MCF-7 TX200; 3.35 nM with Skov-3; 3.04 nM with MCF-7 VP; 4.31 nM in the test on HCT-116; 0.55 nM in the test with MCF-7.
For `CCCN(C(=O)C(NC(=O)C1CCCCN1C)[C@@H](C)CC)[C@H](C[C@@H](OC(C)=O)c1nc(C(=O)N[C@H](CO)Cc2ccccc2)cs1)C(C)C` (stereo partly drawn) [MSRD390], the IC50 with MCF-7 MX100 was 0.2 nM; with MCF-7 TX200, 24.4 nM; in the test on Skov-3, 1.06 nM; in the test on MCF-7 VP, 0.54 nM; in the test with HCT-116 it was 1.1 nM; in the test on MCF-7 it was 0.27 nM.
Take `CCCN(C(=O)C(NC(=O)C1CCCCN1C)[C@@H](C)CC)[C@H](C[C@@H](OCOC)c1nc(C(=O)N[C@@H](Cc2ccccc2)C[C@H](C)CO)cs1)C(C)C` (stereo partly drawn) [MSRD368]: the IC50 with MCF-7 MX100 is 4.01 nM; in the test with MCF-7 TX200, 322 nM; in the test with Skov-3 it was 29.9 nM; in the test on MCF-7 VP it was 6.38 nM; in the test with HCT-116, 41.1 nM; in the test with MCF-7 it was 3.91 nM.
Turning to `CCCN(C(=O)C(NC(=O)C1CCCCN1C)[C@@H](C)CC)[C@H](C[C@@H](OC(C)=O)c1nc(C(=O)N[C@@H](Cc2ccccc2)C[C@H](C)CO)cs1)C(C)C` (stereo partly drawn) [MSRD334], the IC50 was 0.62 nM in the test on MCF-7 MX100; 15.6 nM in the test on MCF-7 TX200; 1.05 nM in the test with Skov-3; 0.88 nM with MCF-7 VP; 1.06 nM with HCT-116; 0.57 nM with MCF-7.
Take `CC[C@H](C)C(NC(=O)C1CCCCN1C)C(=O)N(C)[C@H](C[C@@H](OC(C)=O)c1nc(C(=O)N[C@@H](Cc2ccccc2)C[C@H](C)CO)cs1)C(C)C` (stereo partly drawn) [MSRD345]: the IC50 came out at 0.28 nM with MCF-7 MX100; 50.6 nM with MCF-7 TX200; 1.18 nM with Skov-3; 1.2 nM in the test on MCF-7 VP; 1.35 nM with HCT-116; 0.4 nM in the test on MCF-7.

The record behind these values is US8772244B2, “Tubulin inhibitors” (R&D Biopharmaceuticals GmbH, priority 2009, dated 2014).
